# Test results published in US20040171489A1, “Synergistic active compound combinations for controlling harmful plants” (priority 1998, published 2004).
# Assays:
# Euphorbia heterophylla = experiment: Example 20 field trial, 3-leaf stage: herbicidal effect; format: in vivo; settings: 31 days after application
# Experimental: (§1) The herbicidal efficacy of the active compounds or active compound mixtures was scored visually using the treated plots in comparison to untreated control plots. The damage and development of all above-ground parts of the plants were recorded. Scoring was carried out using a percentage scale (100% effect=all plants killed; 50% effect=50% of the plants and the green parts of the plants killed; 0% effect=no noticeable effect=like control plot. The scores of in each case 4 plots were averaged.
# (§2) If the observed activity values already exceed the formal sum of the values for the trials with the individual applications, they also exceed the expected value according to Colby which is calculated using the following formula and which is likewise considered to be an indication of synergism (cf. S. R. Colby; in Weeds 15 (1967) p. 20 to 22):
# (§3) Crop plants were grown outdoors on plots under natural outdoor conditions, and seeds or rhizome pieces of typical harmful plants were laid out or the natural weed growth was utilized. Treatment with the compositions according to the invention was carried out after the harmful plants had emerged and the crop plants were, generally, at the 2- to 4-leaf stage; in some cases (as stated), application of individual active compounds or active compound combinations was carried out pre-emergence (cf. Section 1) or post-emergence (cf. Section 2) or as a sequential treatment partly pre-emergence and/or post-emergence. After the application, for example 2, 4, 6 and 8 weeks after the application, the effect of the preparations was scored visually by comparison with untreated controls (cf. scoring in Section 1). In the field trial as well, the compositions according to the invention have synergistic herbicidal activity against a broad spectrum of economically important weed grasses and broad-leaved weeds. […] Moreover, the effects in essential phases of the scoring period were above the expected values according to Colby, also indicating synergism. In contrast, the crop plants were, as a consequence of the treatments with the herbicidal compositions, damaged only to a small degree, if at all.
# Elusine indica = experiment: Example 18 field trial, 3-leaf stage: herbicidal effect; format: in vivo; settings: 100 g of ai/ha; 31 days after application
# Experimental: as §1, §2
# as §3, with “In contrast, the crop plants were, as a consequence of the treatments with the herbicidal compositions, damaged only to a small degree, if at all.” left out
# Zea mays (corn) = experiment: Example 17 field trial, pre-emergence: crop damage; format: in vivo; settings: 16 days after application
# Description: (§4) Seeds or rhizome pieces of monocotyledonous and dicotyledonous weed plants are placed in sandy loam soil in pots and covered with soil. The compositions, formulated in the form of concentrated aqueous solutions, wettable powders or emulsion concentrates, are then applied to the surface of the soil cover as aqueous solution, suspension or emulsion at an application rate of 600 to 800 l of water/ha (converted), in various dosages. After the treatment, the pots are placed in a greenhouse and kept under good growth conditions for the weeds. After the test plants have emerged, the damage to the plants or the negative effects on the emergence is scored visually after a test period of 3 to 4 weeks by comparison with untreated controls. As shown by the test results, the compositions according to the invention have good herbicidal pre-emergence activity against a broad spectrum of weed grasses and broad-leaved weeds.
# The herbicidal efficacy of the active compounds or active compound mixtures was scored visually using the treated plots in comparison to untreated control plots. The damage and development of all above-ground parts of the plants were recorded. […]
# as §2
# (§5) Crop plants were grown outdoors on plots under natural outdoor conditions, and seeds or rhizome pieces of typical harmful plants were laid out or the natural weed growth was utilized. […] After the application, for example 2, 4, 6 and 8 weeks after the application, the effect of the preparations was scored visually by comparison with untreated controls (cf. scoring in Section 1). […]
# winter barley = experiment: Example 16 field trial, post-emergence, 2- to 3-leaf stage: crop damage; format: in vivo, Hordeum vulgare; settings: 50 g of ai/ha; 69 days after application
# Experimental: as §1, §2, §5
# [1] = system: corn which is glufosinate-ammonium-resistant; experiment: Example 18 field trial, 3-leaf stage: crop damage; format: in vivo, Corn (LL); settings: 100 g of ai/ha; 31 days after application
# Experimental: The damage and development of all above-ground parts of the plants were recorded.
# Crop plants were grown outdoors on plots under natural outdoor conditions, and seeds or rhizome pieces of typical harmful plants were laid out or the natural weed growth was utilized.
# Setaria viridis = experiment: Example 19 field trial, 4 to 5-leaf stage: herbicidal effect; format: in vivo; settings: 100 g of ai/ha; 31 days after application
# Experimental: as §1, §2, §5
# Echinochloa crus-galli = experiment: as above; format: in vivo; settings: 100 g of ai/ha; 31 days after application
# Experimental: as §1, §2, §5
# Oryza sativa (rice) [2] = experiment: Example 22 field trial, 2-leaf stage: crop damage; format: in vivo; settings: 14 days after application
# Experimental: as §1, §2, §3
# winter wheat [3] = experiment: Example 10 pre-emergence application, fall: crop damage; format: in vivo, Triticum aestivum; settings: 169 days after application
# Description: as §4, §1, §2, §3
# Lamium purpurea = experiment: Example 12 field trial, 2- to 4-leaf stage: herbicidal effect; format: in vivo; settings: 42 days after application
# Experimental: as §1, §2, §3
# Oryza sativa (rice) [4] = experiment: Example 20 field trial, 3-leaf stage: crop damage; format: in vivo; settings: 31 days after application
# Experimental: as §1, §2, §3
# winter wheat [5] = experiment: Example 12 field trial, 2- to 4-leaf stage: crop damage; format: in vivo, Triticum aestivum; settings: 42 days after application
# Experimental: as §1, §2, §3
# winter wheat [6] = experiment: Example 11 field trial, 2- to 4-leaf stage: crop damage; format: in vivo, Triticum aestivum; settings: 28 days after application
# Experimental: as §1, §2, §3
# Anthemis arvensis = experiment: Example 16 field trial, post-emergence, 2- to 3-leaf stage: herbicidal effect; format: in vivo; settings: 50 g of ai/ha; 69 days after application
# Experimental: as §1, §2, §3
# Galium aparine = experiment: as above; format: in vivo; settings: 50 g of ai/ha; 69 days after application
# Experimental: as §1, §2, §3
# Myosotis arvensis = experiment: as above; format: in vivo; settings: 50 g of ai/ha; 69 days after application
# Experimental: as §1, §2, §3
# summer wheat = experiment: Example 13 field trial, 2- to 4-leaf stage: crop damage; format: in vivo, Triticum aestivum; settings: 17 days after application
# Experimental: as §1, §2, §3
# Pharbitis purpurea = experiment: Example 21 field trial, 4-leaf stage: herbicidal effect; format: in vivo; settings: 42 days after application
# Experimental: as §1, §2
# as §3, with “In contrast, the crop plants were, as a consequence of the treatments with the herbicidal compositions, damaged only to a small degree, if at all.” left out
# Capsella bursa-pastoris [7] = experiment: Example 9 field trials, application 1-3 leaf stage broad-leaved weeds: herbicidal effect; format: in vivo; settings: 100 g of ai/ha; 120 to 160 days after application
# Experimental: as §1, §2, §3
# Alopecurus myosuroides = experiment: as above; format: in vivo; settings: 100 g of ai/ha; 120 to 160 days after application
# Experimental: as §1, §2, §3
# Lamium amolexicaule = experiment: Example 15 field trial, 2- to 4-leaf stage: herbicidal effect; format: in vivo; settings: 28 days after application
# Experimental: as §1, §2, §3
# Capsella bursa-pastoris [8] = experiment: Example 11 field trial, 2- to 4-leaf stage: herbicidal effect; format: in vivo; settings: 28 days after application
# Experimental: as §1, §2, §3
# winter wheat [9] = experiment: Example 16 field trial, post-emergence, 2- to 3-leaf stage: crop damage; format: in vivo, Triticum aestivum; settings: 50 g of ai/ha; 69 days after application
# Experimental: as §1, §2, §5
smiles,measurement,setting,value
"CC(C)(F)c1nc(N)nc(NC(CCc2ccccc2)C2CCC2)n1 (stereo not shown) [(A1), 4-amino-6-(1-fluoro-1-methylethyl)-2-(3-phenyl-1-cyclobutylpropylamino)-1,3,5-triazine]","herbicidal effect, EPHHL",Euphorbia heterophylla; 25 g of ai/ha,15%
same,"herbicidal effect, EPHHL",Euphorbia heterophylla; 50 g of ai/ha,50%
same,"herbicidal effect, EPHHL",Euphorbia heterophylla; 100 g of ai/ha,60%
same,"herbicidal effect, ELEIN",Elusine indica,0%
same,"damage, ZEAMA",Zea mays (corn); 50 g of ai/ha,0%
same,"damage, ZEAMA",Zea mays (corn); 100 g of ai/ha,0%
same,"herbicidal effect (%), HORVW (crop)",winter barley,0%
same,"damage, Corn (LL)",[1],0%
same,"herbicidal effect, SETVI",Setaria viridis,0%
same,"herbicidal effect, ECHCG",Echinochloa crus-galli,0%
same,"damage, ORYSA",Oryza sativa (rice) [2]; 25 g of ai/ha,0%
same,"damage, ORYSA",Oryza sativa (rice) [2]; 50 g of ai/ha,10%
same,"damage, ORYSA",Oryza sativa (rice) [2]; 100 g of ai/ha,13%
same,"damage, TRZAW",winter wheat [3]; 50 g of ai/ha,1%
same,"damage, TRZAW",winter wheat [3]; 100 g of ai/ha,2%
same,"herbicidal effect, LAMPU",Lamium purpurea; 12.5 g of ai/ha,25%
same,"herbicidal effect, LAMPU",Lamium purpurea; 25 g of ai/ha,65%
same,"herbicidal effect, LAMPU",Lamium purpurea; 50 g of ai/ha,70%
same,"damage, ORYSA",Oryza sativa (rice) [4]; 25 g of ai/ha,0%
same,"damage, ORYSA",Oryza sativa (rice) [4]; 50 g of ai/ha,0%
same,"damage, ORYSA",Oryza sativa (rice) [4]; 100 g of ai/ha,0%
same,"damage, TRZAW",winter wheat [5]; 12.5 g of ai/ha,0%
same,"damage, TRZAW",winter wheat [5]; 25 g of ai/ha,0%
same,"damage, TRZAW",winter wheat [5]; 50 g of ai/ha,0%
same,"damage, TRZAW",winter wheat [6]; 25 g of ai/ha,0%
same,"damage, TRZAW",winter wheat [6]; 50 g of ai/ha,1%
same,"damage, TRZAW",winter wheat [6]; 75 g of ai/ha,1%
same,"damage, TRZAW",winter wheat [6]; 100 g of ai/ha,2%
same,"herbicidal effect (%), ANTAR",Anthemis arvensis,0%
same,"herbicidal effect (%), GALAP",Galium aparine,66%
same,"herbicidal effect (%), MYOAR",Myosotis arvensis,81%
same,"damage, TRZAS",summer wheat; 62.5 g of ai/ha,5%
same,"damage, TRZAS",summer wheat; 125 g of ai/ha,13%
same,"herbicidal effect, PHBPU",Pharbitis purpurea; 25 g of ai/ha,90%
same,"herbicidal effect, PHBPU",Pharbitis purpurea; 50 g of ai/ha,95%
same,"herbicidal effect, PHBPU",Pharbitis purpurea; 100 g of ai/ha,97%
same,"herbicidal effect, CAPBP",Capsella bursa-pastoris [7],88%
same,"herbicidal effect, ALOMY",Alopecurus myosuroides,0%
same,"herbicidal effect, LAMAM",Lamium amolexicaule; 25 g of ai/ha,60%
same,"herbicidal effect, LAMAM",Lamium amolexicaule; 50 g of ai/ha,74%
same,"herbicidal effect, LAMAM",Lamium amolexicaule; 100 g of ai/ha,80%
same,"herbicidal effect, CAPPBP",Capsella bursa-pastoris [8]; 25 g of ai/ha,40%
same,"herbicidal effect, CAPPBP",Capsella bursa-pastoris [8]; 50 g of ai/ha,68%
same,"herbicidal effect, CAPPBP",Capsella bursa-pastoris [8]; 75 g of ai/ha,73%
same,"herbicidal effect, CAPPBP",Capsella bursa-pastoris [8]; 100 g of ai/ha,79%
same,"herbicidal effect (%), TRZAW (crop)",winter wheat [9],0%
